Here are results for 1 molecule from patent publication US20190125745A1, “TREATMENT AND DIAGNOSIS OF CANCER” (Rgenix, Inc., priority 2014, published 2019).

Structures are written as SMILES. Counter-ions that a name gives are not always drawn.

The test system of assay [1] is SK-Mel-239 vemurafenib-resistant clone cells. Particulars: diet 100 mg/kg.
The subject of assay [2] is SK-Mel-2 human melanoma cells. The assay can be described thus: Subcutaneous SK-Mel-2 tumor growth in immunocompromised mice. Type of assay: in vivo. The conditions noted are these: oral. The protocol:
(§1) FIG. 4. Therapeutic LXR Activation Inhibits Melanoma Tumor Growth. […] Representative tumor images shown correspond to tumors extracted at the final day (d12). n=10-18 (A), 8-10 (B). (C-E) Primary tumor growth by 1×10^6 MeWo (C), […] SK-Mel-334.2 (D), and 2×10^6 SK-Mel-2 (E) human melanoma cells subcutaneously injected into immunocompromised mice. […] Tumor images shown correspond to last day of measurements. n=6-34 (C), 8 (D), 5 (E). (F) 5×10^4 B16F10 cells were injected subcutaneously into C57BL/6-WT mice. Upon tumor growth to 150 mm^3, mice were fed continuously with a control chow or a chow containing GW3965 (150 mg/kg), and tumor growth was measured daily. n=6-13. […] Tumor volume was calculated as (small diameter)^2×(large diameter)/2. […] Scale bars, 5 mm (A-D), 50 μm (J, K), 25 μm (L).

The subject of assay [3] is MeWo human melanoma cells. Briefly: Subcutaneous MeWo tumor growth in immunocompromised mice. Type of assay: in vivo. Particulars: oral. The protocol: as §1

As to `O=C(O)Cc1cccc(OCCCN(Cc2cccc(C(F)(F)F)c2Cl)CC(c2ccccc2)c2ccccc2)c1` [GW3965 108, 3-[3-[N-(2-Chloro-3-trifluoromethylbenzyl)-(2,2-diphenylethyl)amino]propyloxy] phenylacetic acid hydrochloride], the “suppression of growth of the SK-Mel-239 vemurafenib-resistant line” value in assay [1] is listed as 72%. Also, the “inhibition of tumor growth, SK-Mel-2” value in assay [2] is 49%. For the same molecule, the “inhibition of tumor growth, MeWo” value in assay [3] is on record as 70%.
